As usually defined, the IC50 is the concentration at which inhibition is half-maximal.

The text below walks through data of patent US10308639B2, “Phosphatidylinositol 3-kinase inhibitors” (Gilead Sciences, Inc., priority 2014, dated 2019).

Structures are written as SMILES.

Holding throughout (type): biochemical
Test [1] has as its target T1, PI3Kβ (Homo sapiens, UniProt P42338).
T1 construct: made in house
Description: TR-FRET enzymatic activity assay, PI3Kβ. The following applies: Table 2a; same assay.

In test [2] the target is T2, PI3Kδ (Homo sapiens, UniProt O00329).
T2 construct: made in house
Description: TR-FRET enzymatic activity assay, PI3Kδ. To be noted: Table 2a; same assay. (In TR-FRET formats the signal depends on donor and acceptor labels being close together.)

Test [3] concerns the target T3, PI3Kγ (Homo sapiens, UniProt P48736).
T3 construct: made in house
Description: TR-FRET enzymatic activity assay, PI3Kγ. The following applies: Table 2a; same assay; read-out: PI3Kγ IC50. An outline of the steps: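 Read-out is TR-FRET. The assay scores enzymatic activity of the individual PI3K isoforms in the presence of compound.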

T3 sequence (P48736 whole entry): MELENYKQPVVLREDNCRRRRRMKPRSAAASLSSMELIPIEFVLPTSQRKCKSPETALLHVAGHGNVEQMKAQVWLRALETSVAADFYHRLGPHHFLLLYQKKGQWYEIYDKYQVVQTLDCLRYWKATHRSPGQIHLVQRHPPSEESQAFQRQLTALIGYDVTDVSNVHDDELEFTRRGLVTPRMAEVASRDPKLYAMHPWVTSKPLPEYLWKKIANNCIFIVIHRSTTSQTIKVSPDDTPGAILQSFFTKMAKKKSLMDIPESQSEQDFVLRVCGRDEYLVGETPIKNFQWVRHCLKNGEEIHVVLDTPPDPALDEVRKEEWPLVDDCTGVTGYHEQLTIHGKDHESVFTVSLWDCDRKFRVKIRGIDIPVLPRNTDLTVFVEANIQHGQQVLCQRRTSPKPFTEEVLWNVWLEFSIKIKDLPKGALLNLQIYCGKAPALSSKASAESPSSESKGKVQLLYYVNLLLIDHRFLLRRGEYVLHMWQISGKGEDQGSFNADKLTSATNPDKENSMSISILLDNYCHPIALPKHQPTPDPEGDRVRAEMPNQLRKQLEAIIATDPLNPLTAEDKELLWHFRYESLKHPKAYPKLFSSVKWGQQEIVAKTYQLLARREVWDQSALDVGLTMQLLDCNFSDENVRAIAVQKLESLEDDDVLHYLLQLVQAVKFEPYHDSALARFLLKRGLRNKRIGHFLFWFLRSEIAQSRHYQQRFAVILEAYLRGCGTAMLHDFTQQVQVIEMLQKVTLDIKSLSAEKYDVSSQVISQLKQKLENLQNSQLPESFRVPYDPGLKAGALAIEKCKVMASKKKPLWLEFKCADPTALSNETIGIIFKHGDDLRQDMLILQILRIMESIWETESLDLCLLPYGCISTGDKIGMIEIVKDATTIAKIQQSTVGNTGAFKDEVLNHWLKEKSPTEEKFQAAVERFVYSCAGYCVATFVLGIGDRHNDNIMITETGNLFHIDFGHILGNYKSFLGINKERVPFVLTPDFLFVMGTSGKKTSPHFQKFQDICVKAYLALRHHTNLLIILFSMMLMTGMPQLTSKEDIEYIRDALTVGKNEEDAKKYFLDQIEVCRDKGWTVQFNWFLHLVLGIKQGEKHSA
T2 sequence (O00329 whole entry): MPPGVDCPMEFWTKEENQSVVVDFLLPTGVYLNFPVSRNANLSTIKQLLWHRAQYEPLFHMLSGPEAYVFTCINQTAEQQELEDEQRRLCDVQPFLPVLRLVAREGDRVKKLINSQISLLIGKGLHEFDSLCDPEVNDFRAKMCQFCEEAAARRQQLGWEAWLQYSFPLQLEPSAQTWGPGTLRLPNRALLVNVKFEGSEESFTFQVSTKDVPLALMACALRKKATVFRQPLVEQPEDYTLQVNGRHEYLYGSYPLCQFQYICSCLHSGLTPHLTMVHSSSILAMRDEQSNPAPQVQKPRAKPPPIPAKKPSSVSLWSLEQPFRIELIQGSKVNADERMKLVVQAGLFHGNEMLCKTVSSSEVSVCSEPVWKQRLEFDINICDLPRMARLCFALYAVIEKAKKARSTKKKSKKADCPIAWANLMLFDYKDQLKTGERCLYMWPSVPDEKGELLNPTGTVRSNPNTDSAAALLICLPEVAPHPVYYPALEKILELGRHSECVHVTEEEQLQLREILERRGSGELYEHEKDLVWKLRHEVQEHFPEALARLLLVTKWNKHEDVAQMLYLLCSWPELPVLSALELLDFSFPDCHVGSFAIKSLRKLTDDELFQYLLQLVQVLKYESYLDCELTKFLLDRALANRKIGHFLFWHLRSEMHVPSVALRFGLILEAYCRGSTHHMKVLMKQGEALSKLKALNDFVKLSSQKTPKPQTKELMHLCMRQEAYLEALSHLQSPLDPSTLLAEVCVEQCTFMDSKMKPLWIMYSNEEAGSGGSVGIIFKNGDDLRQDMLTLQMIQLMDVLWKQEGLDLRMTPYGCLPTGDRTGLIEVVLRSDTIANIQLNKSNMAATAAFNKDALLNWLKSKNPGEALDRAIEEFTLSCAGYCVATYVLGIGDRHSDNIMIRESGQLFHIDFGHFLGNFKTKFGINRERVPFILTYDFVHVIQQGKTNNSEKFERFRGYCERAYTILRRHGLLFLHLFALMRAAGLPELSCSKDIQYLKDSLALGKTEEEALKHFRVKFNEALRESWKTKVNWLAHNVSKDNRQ
T2 sequence (P27986 whole entry partner): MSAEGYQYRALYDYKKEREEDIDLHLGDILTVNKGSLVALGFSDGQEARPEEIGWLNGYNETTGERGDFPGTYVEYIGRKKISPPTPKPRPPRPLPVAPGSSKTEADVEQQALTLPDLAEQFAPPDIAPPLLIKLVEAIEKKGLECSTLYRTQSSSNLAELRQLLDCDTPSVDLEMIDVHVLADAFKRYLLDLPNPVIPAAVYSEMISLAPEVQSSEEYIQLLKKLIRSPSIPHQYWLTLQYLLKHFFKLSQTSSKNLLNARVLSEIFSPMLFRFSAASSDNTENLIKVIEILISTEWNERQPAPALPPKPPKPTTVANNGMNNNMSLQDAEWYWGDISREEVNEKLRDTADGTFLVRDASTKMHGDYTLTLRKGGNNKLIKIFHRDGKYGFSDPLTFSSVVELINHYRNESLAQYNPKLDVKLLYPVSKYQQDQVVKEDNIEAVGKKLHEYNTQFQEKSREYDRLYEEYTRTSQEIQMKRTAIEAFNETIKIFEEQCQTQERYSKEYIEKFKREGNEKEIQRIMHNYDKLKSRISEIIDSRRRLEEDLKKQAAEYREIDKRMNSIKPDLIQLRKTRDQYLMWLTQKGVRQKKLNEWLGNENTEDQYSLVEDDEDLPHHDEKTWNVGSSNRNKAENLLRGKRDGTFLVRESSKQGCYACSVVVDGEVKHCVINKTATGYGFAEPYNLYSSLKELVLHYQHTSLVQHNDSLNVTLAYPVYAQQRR
T1 sequence (P42338 whole entry): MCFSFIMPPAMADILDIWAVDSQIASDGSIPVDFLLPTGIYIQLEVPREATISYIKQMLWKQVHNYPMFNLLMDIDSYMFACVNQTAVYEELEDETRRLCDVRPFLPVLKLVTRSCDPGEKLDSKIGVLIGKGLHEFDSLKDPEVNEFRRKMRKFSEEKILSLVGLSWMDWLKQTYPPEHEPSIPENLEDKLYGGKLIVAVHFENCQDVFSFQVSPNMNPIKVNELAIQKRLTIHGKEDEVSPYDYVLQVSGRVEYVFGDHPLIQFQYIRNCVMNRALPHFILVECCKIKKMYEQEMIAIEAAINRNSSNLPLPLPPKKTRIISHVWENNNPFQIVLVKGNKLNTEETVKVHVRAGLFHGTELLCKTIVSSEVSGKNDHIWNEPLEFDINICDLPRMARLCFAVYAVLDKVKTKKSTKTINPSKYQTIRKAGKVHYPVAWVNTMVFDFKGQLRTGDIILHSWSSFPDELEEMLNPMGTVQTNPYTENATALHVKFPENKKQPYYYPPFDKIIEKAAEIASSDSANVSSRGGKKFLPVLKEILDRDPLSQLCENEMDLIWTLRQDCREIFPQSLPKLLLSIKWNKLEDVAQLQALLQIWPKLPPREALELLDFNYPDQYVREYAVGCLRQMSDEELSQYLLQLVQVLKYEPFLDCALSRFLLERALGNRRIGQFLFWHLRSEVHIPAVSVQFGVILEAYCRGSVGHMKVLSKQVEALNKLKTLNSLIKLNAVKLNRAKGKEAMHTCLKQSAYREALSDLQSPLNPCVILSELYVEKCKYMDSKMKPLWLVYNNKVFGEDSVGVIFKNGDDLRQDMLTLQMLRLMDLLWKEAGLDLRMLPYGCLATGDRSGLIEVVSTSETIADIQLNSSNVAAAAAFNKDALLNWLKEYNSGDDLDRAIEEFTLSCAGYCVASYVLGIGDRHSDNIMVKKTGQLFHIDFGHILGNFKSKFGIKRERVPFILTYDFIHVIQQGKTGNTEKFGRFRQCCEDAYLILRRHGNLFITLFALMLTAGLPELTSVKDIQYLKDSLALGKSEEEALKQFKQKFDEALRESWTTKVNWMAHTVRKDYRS
T1 sequence (P27986 whole entry partner): as the sequence (P27986 whole entry partner) above

On to `Nc1nc(N)c(Cl)c(N[C@H](c2nc3c(Cl)cc(F)cc3c(=O)n2-c2c[nH]cn2)C2CC2)n1` [Compound 280, (S)-8-chloro-2-(cyclopropyl((2,6-diamino-5-chloropyrimidin-4-yl)amino)methyl)-6-fluoro-3-(1H-imidazol-4-yl)quinazolin-4(3H)-one], for which the figures for the IC50 in test [1], in test [2] and in test [3] were 370 nM, 48 nM and greater than 10000 nM, respectively.

On to `N#Cc1c(N)nc(N)nc1N[C@H](c1nc2c(Cl)cc(F)cc2c(=O)n1-c1c[nH]cn1)C1CC1` [Compound 281, (S)-2,4-diamino-6-(((8-chloro-6-fluoro-3-(1H-imidazol-4-yl)-4-oxo-3,4-dihydroquinazolin-2-yl)(cyclopropyl)methyl)amino)pyrimidine-5-carbonitrile], for which the concentration for half-maximal inhibition (IC50) stood at 2 nM in test [1], 1 nM in test [2] and 620 nM in test [3].

Regarding `CCC[C@H](Nc1nc(N)nc(N)c1Cl)c1nc2cccc(Cl)c2c(=O)n1-c1c[nH]cn1` [Compound 282, (S)-5-chloro-2-(1-((2,6-diamino-5-chloropyrimidin-4-yl)amino)butyl)-3-(1H-imidazol-4-yl)quinazolin-4(3H)-one], the IC50 in test [1] was determined as 120 nM; in test [2] it was 26 nM; in test [3] it was 5700 nM.

For the molecule `CCC[C@H](Nc1nc(N)nc(N)c1C#N)c1nc2cccc(Cl)c2c(=O)n1-c1c[nH]cn1` [Compound 283, (S)-2,4-diamino-6-((1-(5-chloro-3-(1H-imidazol-4-yl)-4-oxo-3,4-dihydroquinazolin-2-yl)butyl)amino)pyrimidine-5-carbonitrile], the 50% inhibitory concentration (IC50) in test [1] came out at 3 nM; in test [2] it was 2 nM; in test [3], 740 nM.

Regarding `C[C@H](Nc1nc(N)nc(N)c1Cl)c1nc2c(Cl)cc(F)cc2c(=O)n1-c1c[nH]cn1` [Compound 284, (S)-8-chloro-2-(1-((2,6-diamino-5-chloropyrimidin-4-yl)amino)ethyl)-6-fluoro-3-(1H-imidazol-4-yl)quinazolin-4(3H)-one], the values for the concentration for half-maximal inhibition (IC50) in test [1], in test [2] and in test [3] were 340 nM, 20 nM and greater than 10000 nM, respectively.

`C[C@H](Nc1nc(N)nc(N)c1C#N)c1nc2c(Cl)cc(F)cc2c(=O)n1-c1c[nH]cn1` [Compound 285, (S)-2,4-diamino-6-((1-(8-chloro-6-fluoro-3-(1H-imidazol-4-yl)-4-oxo-3,4-dihydroquinazolin-2-yl)ethyl)amino)pyrimidine-5-carbonitrile]: the IC50 is 4 nM in test [1], 1 nM in test [2] and 330 nM in test [3].

For the molecule `C[C@H](Nc1nc(N)nc(N)c1C#N)c1nc2c(Cl)ccc(Cl)c2c(=O)n1-c1c[nH]cn1` [Compound 286, (S)-2,4-diamino-6-((1-(5,8-dichloro-3-(1H-imidazol-4-yl)-4-oxo-3,4-dihydroquinazolin-2-yl)ethyl)amino)pyrimidine-5-carbonitrile], the IC50 in test [1] is 0.8 nM; in test [2], 0.3 nM; in test [3], 230 nM.

For the molecule `Nc1nc(N)c(Cl)c(N[C@H](c2nc3cccc(Cl)c3c(=O)n2-c2c[nH]cn2)C2CC2)n1` [Compound 287, (S)-5-chloro-2-(cyclopropyl((2,6-diamino-5-chloropyrimidin-4-yl)amino)methyl)-3-(1H-imidazol-4-yl)quinazolin-4(3H)-one], the figures for the IC50 in test [1], in test [2] and in test [3] were 53 nM, 8 nM and 3000 nM, respectively.

For `C[C@H](Nc1nc(N)nc(N)c1C#N)c1nc2cccc(Cl)c2c(=O)n1-c1c[nH]cn1` [Compound 288, (S)-2,4-diamino-6-((1-(5-chloro-3-(1H-imidazol-4-yl)-4-oxo-3,4-dihydroquinazolin-2-yl)ethyl)amino)pyrimidine-5-carbonitrile], the IC50 in test [1] is 2 nM; in test [2], 0.7 nM; in test [3] it was 190 nM.

For the molecule `C[C@H](Nc1nc(N)nc(N)c1C#N)c1nc2cccc(Cl)c2c(=O)n1-c1ccc[nH]1` [Compound 289, (S)-2,4-diamino-6-((1-(5-chloro-4-oxo-3-(1H-pyrrol-2-yl)-3,4-dihydroquinazolin-2-yl)ethyl)amino)pyrimidine-5-carbonitrile], the IC50 in test [1] was determined as 5 nM; in test [2], 0.2 nM; in test [3], 12 nM.

`C[C@H](Nc1ncnc2scnc12)c1nc2cccc(Cl)c2c(=O)n1-c1ccc[nH]1` [Compound 290, (S)-5-chloro-3-(1H-pyrrol-2-yl)-2-(1-(thiazolo[5,4-d]pyrimidin-7-ylamino)ethyl)quinazolin-4(3H)-one]: the IC50 in test [1] amounted to 69 nM; in test [2], 0.5 nM; in test [3], 72 nM.

Consider `C[C@H](Nc1ncnn2ccnc12)c1nc2cccc(Cl)c2c(=O)n1-c1ccc[nH]1` [Compound 291, (S)-5-chloro-2-(1-(imidazo[2,1-f][1,2,4]triazin-4-ylamino)ethyl)-3-(1H-pyrrol-2-yl)quinazolin-4(3H)-one], for which the figures for the half-maximal inhibitory concentration (IC50) in test [1], in test [2] and in test [3] were 140 nM, 1 nM and 170 nM, respectively.
